Experimental data as given in patent publication US6492416B1, “4,5-diaryl-3(2H)-furanone derivatives as cyclooxygenase-2 inhibitors” (Pacific Corporation, priority 1999, dated 2002).
Converted amounts (≈) assume the structure as drawn.

Legend:
COX-1 = biological target: T1, COX-1 (Mus musculus, UniProt P22437); assay: Evaluation of COX-1 activity: PGE2 formation in mouse peritoneal macrophages without aspirin and LPS treatment; format: cell-based; conditions: for IC50: read-out: IC50, μg/ml COX-1 (converted)
T1 sequence (P22437 27-602): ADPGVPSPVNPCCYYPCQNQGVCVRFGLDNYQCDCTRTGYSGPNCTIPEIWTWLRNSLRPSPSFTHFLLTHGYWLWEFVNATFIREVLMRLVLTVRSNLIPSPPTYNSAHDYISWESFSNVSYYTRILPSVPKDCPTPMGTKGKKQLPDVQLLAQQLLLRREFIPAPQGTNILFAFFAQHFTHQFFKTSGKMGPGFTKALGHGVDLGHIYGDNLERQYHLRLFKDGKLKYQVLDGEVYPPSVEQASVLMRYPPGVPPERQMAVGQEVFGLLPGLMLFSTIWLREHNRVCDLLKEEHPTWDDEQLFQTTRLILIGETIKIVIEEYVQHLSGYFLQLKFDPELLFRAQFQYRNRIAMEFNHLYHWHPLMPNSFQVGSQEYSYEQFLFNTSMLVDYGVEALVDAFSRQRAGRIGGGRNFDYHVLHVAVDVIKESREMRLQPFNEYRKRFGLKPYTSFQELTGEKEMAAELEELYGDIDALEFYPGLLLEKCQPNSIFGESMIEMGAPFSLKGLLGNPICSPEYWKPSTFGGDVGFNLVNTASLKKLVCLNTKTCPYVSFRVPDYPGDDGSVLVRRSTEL
Summary of the method: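 Peritoneal macrophages from C57BL/6 mice, without aspirin or LPS treatment, were plated at 1×10^6 cells/ml and fixed 2 h at 37 °C. Cells were preincubated 10 min, then given 10 μM arachidonic acid plus compound for 10 min; PGE2 was measured by RIA or EIA. IC50 came from 4–5 concentrations.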

COX-2 = biological target: T2, COX-2 (Mus musculus, UniProt Q05769); assay: Evaluation of COX-2 activity: PGE2 formation in aspirin-treated, LPS-stimulated mouse peritoneal macrophages; format: cell-based; conditions: for IC50: read-out: IC50, μg/ml COX-2 (converted)
T2 sequence (Q05769 18-604): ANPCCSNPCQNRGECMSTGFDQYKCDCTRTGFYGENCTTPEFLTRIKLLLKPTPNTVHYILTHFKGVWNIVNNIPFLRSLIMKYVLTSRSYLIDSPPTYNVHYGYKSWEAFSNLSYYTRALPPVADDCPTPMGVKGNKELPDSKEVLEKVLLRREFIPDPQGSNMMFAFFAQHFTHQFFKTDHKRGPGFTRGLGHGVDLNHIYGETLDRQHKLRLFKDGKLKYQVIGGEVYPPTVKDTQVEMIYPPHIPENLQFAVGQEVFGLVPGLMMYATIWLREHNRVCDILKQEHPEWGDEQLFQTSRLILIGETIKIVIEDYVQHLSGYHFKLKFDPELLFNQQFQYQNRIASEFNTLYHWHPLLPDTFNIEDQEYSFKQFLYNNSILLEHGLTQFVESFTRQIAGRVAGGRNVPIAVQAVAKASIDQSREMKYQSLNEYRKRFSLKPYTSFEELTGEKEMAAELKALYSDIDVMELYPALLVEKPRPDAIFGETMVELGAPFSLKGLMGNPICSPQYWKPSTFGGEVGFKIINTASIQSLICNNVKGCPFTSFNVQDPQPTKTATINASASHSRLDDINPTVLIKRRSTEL
Summary of the method: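 C57BL/6 peritoneal macrophages treated with 500 μM aspirin to block COX-1, adhered, then stimulated with 10 μg/ml LPS for 16 h at 37 °C to induce COX-2.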

IC50, μg/ml COX-1 (COX-1) | IC50, μg/ml COX-2 (COX-2) | melting point | IC50 (COX-1) | IC50 (COX-2) | SMILES
5 µg/mL (≈ 12.5 µM) | 0.002 µg/mL (≈ 0.00502 µM) | 84 to 85 °C |  |  | CCCCc1ccc(C2=C(c3ccc(S(C)(=O)=O)cc3)OC(C)(C)C2=O)cc1 [Example 97]
3 µg/mL (≈ 8.01 µM) | 0.03 µg/mL (≈ 0.0801 µM) | 138 to 139 °C |  |  | Cc1cc(C2=C(c3cccc(F)c3)C(=O)C(C)(C)O2)ccc1S(C)(=O)=O [Example 378, 2,2-Dimethyl-4-(3-fluorophenyl)-5-{3-methyl-4-(methylsulfonyl)phenyl}-3(2H)-furanone]
100 µg/mL (≈ 279 µM) | 0.3 µg/mL (≈ 0.837 µM) | 150 to 152 °C |  |  | CC1(C)OC(c2ccc(S(C)(=O)=O)cc2)=C(c2ccc(O)cc2)C1=O [Example 104, 2,2-Dimethyl-4-(4-hydroxyphenyl)-5-{4-(methylsulfonyl)phenyl}-3(2H)-furanone]
50 µg/mL (≈ 140 µM) | 0.03 µg/mL (≈ 0.0837 µM) | 182 to 183 °C |  |  | CC1(C)OC(c2ccc(S(C)(=O)=O)cc2)=C(c2ccccc2O)C1=O [Example 105]
300 µg/mL (≈ 710 µM) | 0.9 µg/mL (≈ 2.13 µM) | 128 to 132 °C |  |  | CC1(C)OC(c2ccc(S(N)(=O)=O)c(Br)c2)=C(c2ccccc2)C1=O [Example 351, 5-{4-(Aminosulfonyl)-3-bromophenyl}-2,2-dimethyl-4-phenyl-3(2H)-furanone]
10 µg/mL (≈ 26.4 µM) | 0.03 µg/mL (≈ 0.0793 µM) | 157 to 158 °C |  |  | CC1(C)OC(c2ccc(S(C)(=O)=O)cc2F)=C(c2cccc(F)c2)C1=O [Example 323]
30 µg/mL (≈ 78 µM) | 0.03 µg/mL (≈ 0.078 µM) | 83 to 84 °C |  |  | CC(C)c1cccc(C2=C(c3ccc(S(C)(=O)=O)cc3)OC(C)(C)C2=O)c1 [Example 86]
10 µg/mL (≈ 25.2 µM) | 0.1 µg/mL (≈ 0.252 µM) | 183 to 184 °C |  |  | CC1(C)OC(c2ccc(S(C)(=O)=O)c(F)c2)=C(c2ccc(F)cc2F)C1=O [Example 281]
3 µg/mL (≈ 8.71 µM) | 0.2 µg/mL (≈ 0.581 µM) | 149 to 150 °C |  |  | C[S+]([O-])c1ccc(C2=C(c3ccccc3)C(=O)C(C)(C)O2)cc1F (stereo not drawn) [Example 291, 2,2-dimethyl-5-{3-fluoro-4-(methylsulfinyl)phenyl}-4-phenyl-3(2H)-furanone]
5 µg/mL (≈ 13.4 µM) | 0.05 µg/mL (≈ 0.134 µM) | 159 to 160 °C |  |  | Cc1ccc(F)cc1C1=C(c2ccc(S(C)(=O)=O)cc2)OC(C)(C)C1=O [Example 94]
20 µg/mL (≈ 52.9 µM) | 0.03 µg/mL (≈ 0.0793 µM) | 141 to 142 °C |  |  | CC1(C)OC(c2ccc(S(C)(=O)=O)cc2)=C(c2cc(F)ccc2F)C1=O [Example 103]
 |  | 48 to 49 °C | 8.1 µM | 81 nM | CCC1(C)OC(c2ccc(S(C)(=O)=O)cc2)=C(c2cccc(C)c2)C1=O (stereo not drawn) [Example 193]
20 µg/mL (≈ 50.5 µM) | 0.03 µg/mL (≈ 0.0757 µM) | 118 to 119 °C |  |  | CC1(C)OC(c2ccc(S(C)(=O)=O)cc2F)=C(c2cc(F)cc(F)c2)C1=O [Example 326]
3 µg/mL (≈ 7.6 µM) | 0.009 µg/mL (≈ 0.0228 µM) | 173 to 174 °C |  |  | CC1(C)OC(c2ccc(S(C)(=O)=O)c(Cl)c2)=C(c2ccc(F)cc2)C1=O [Example 360]
>10 µg/mL | 0.055 µg/mL (≈ 0.147 µM) | 259 to 260 °C |  |  | COc1cccc(C2=C(c3ccc(S(N)(=O)=O)cc3)OC(C)(C)C2=O)c1 [Example 135]
90 µg/mL (≈ 214 µM) | 0.3 µg/mL (≈ 0.712 µM) | 154 to 155 °C |  |  | CC1(C)OC(c2ccc(S(C)(=O)=O)c(Br)c2)=C(c2ccccc2)C1=O [Example 341, 5-{3-Bromo-4-(methylsulfonyl)phenyl}-2,2-dimethyl-4-phenyl-3(2H)-furanone]
8 µg/mL (≈ 19.5 µM) | 0.02 µg/mL (≈ 0.0486 µM) | 188 to 189 °C |  |  | CC1(C)OC(c2ccc(S(C)(=O)=O)c(Cl)c2)=C(c2cccc(Cl)c2)C1=O [Example 358]
50 µg/mL (≈ 161 µM) | 3 µg/mL (≈ 9.66 µM) | 109 to 110 °C |  |  | CSc1ccc(C2=C(c3ccccc3)C(=O)C(C)(C)O2)cc1 [Example 167]
 |  | 45 to 46 °C | 47.1 µM | 118 nM | CCC1(C)OC(c2ccc(S(C)(=O)=O)cc2)=C(c2cccc(C(F)(F)F)c2)C1=O (stereo not drawn) [Example 194]
50 µg/mL (≈ 119 µM) | 0.03 µg/mL (≈ 0.0716 µM) | 96 to 99 °C |  |  | CS(=O)(=O)c1ccc(C2=C(c3cccc(Cl)c3)C(=O)C3(CCOCC3)O2)cc1 [Example 263]
3 µg/mL (≈ 7.29 µM) | 0.03 µg/mL (≈ 0.0729 µM) | 187 to 188 °C |  |  | CC1(C)OC(c2ccc(S(C)(=O)=O)cc2)=C(c2cc(Cl)cc(Cl)c2)C1=O [Example 75]
1.07 µg/mL (≈ 2.68 µM) | 0.01 µg/mL (≈ 0.025 µM) | 154 to 155 °C |  |  | CCC1(C)OC(c2ccc(S(N)(=O)=O)cc2)=C(c2ccc(C(C)=O)cc2)C1=O (stereo not drawn) [Example 45, 4-(4-Acetylphenyl)-5-{4-(aminosulfonyl)phenyl}-2-ethyl-2-methyl-3(2H)-furanone]
200 µg/mL (≈ 483 µM) | 0.02 µg/mL (≈ 0.0483 µM) | 173 to 174 °C |  |  | CC1(C)OC(c2ccc(S(N)(=O)=O)c(Cl)c2)=C(c2cc(F)cc(F)c2)C1=O [Example 371]
>10 µg/mL | 0.101 µg/mL (≈ 0.278 µM) | 120 to 121 °C |  |  | CCC1(C)OC(c2ccc(S(N)(=O)=O)cc2)=C(c2ccsc2)C1=O (stereo not drawn) [Example 44, 5-{4-(Aminosulfonyl)phenyl}-2-ethyl-2-methyl-4-(3-thienyl)-3(2H)-furanone]
8 µg/mL (≈ 21.2 µM) | 0.06 µg/mL (≈ 0.159 µM) | 193 to 194 °C |  |  | CC1(C)OC(c2ccc(S(N)(=O)=O)c(Cl)c2)=C(c2ccccc2)C1=O [Example 367, 5-{4-(Aminosulfonyl)-3-chlorophenyl}-2,2-dimethyl-4-phenyl-3(2H)-furanone]
50 µg/mL (≈ 126 µM) | 0.05 µg/mL (≈ 0.126 µM) | 122 to 123 °C |  |  | CC1(C)OC(c2ccc(S(N)(=O)=O)c(F)c2)=C(c2ccccc2Cl)C1=O [Example 304]
200 µg/mL (≈ 505 µM) | 0.05 µg/mL (≈ 0.126 µM) | 150 to 151 °C |  |  | CC1(C)OC(c2ccc(S(C)(=O)=O)cc2F)=C(c2cc(F)ccc2F)C1=O [Example 325]
20 µg/mL (≈ 56.1 µM) | 0.2 µg/mL (≈ 0.561 µM) | 115 to 117 °C |  |  | CCC1(C)OC(c2ccc(S(C)(=O)=O)cc2)=C(c2ccccc2)C1=O (stereo not drawn) [Example 31, 2-Ethyl-2-methyl-5-{4-(methylsulfonyl)phenyl}-4-phenyl-3(2H)-furanone]
5 µg/mL (≈ 12.4 µM) | 0.03 µg/mL (≈ 0.0742 µM) | 127 to 128 °C |  |  | CS(=O)(=O)c1ccc(C2=C(c3cc(F)cc(F)c3)C(=O)C3(CCCC3)O2)cc1 [Example 256]
50 µg/mL (≈ 130 µM) | 0.05 µg/mL (≈ 0.13 µM) | 189 to 190 °C |  |  | CC(=O)c1cccc(C2=C(c3ccc(S(C)(=O)=O)cc3)OC(C)(C)C2=O)c1 [Example 5, 4-(3-acetylphenyl)-2,2-dimethyl-5-{4-(methylsulfonyl)phenyl}-3(2H)-furanone]
